Assay results taken from ChEMBL document CHEMBL3991601, “The target landscape of clinical kinase drugs” (Science, 2017).
The source made the active and inactive calls. Rule as the data show it, for most assays here: actives have a measured Kd and inactives only a lower limit.

Experiments:
[1] = molecular target: Tyrosine-protein kinase Fyn (Homo sapiens, UniProt P06241)
[2] = molecular target: T1, Cyclin-G-associated kinase (Homo sapiens, UniProt O14976)
T1 sequence (O14976 whole entry): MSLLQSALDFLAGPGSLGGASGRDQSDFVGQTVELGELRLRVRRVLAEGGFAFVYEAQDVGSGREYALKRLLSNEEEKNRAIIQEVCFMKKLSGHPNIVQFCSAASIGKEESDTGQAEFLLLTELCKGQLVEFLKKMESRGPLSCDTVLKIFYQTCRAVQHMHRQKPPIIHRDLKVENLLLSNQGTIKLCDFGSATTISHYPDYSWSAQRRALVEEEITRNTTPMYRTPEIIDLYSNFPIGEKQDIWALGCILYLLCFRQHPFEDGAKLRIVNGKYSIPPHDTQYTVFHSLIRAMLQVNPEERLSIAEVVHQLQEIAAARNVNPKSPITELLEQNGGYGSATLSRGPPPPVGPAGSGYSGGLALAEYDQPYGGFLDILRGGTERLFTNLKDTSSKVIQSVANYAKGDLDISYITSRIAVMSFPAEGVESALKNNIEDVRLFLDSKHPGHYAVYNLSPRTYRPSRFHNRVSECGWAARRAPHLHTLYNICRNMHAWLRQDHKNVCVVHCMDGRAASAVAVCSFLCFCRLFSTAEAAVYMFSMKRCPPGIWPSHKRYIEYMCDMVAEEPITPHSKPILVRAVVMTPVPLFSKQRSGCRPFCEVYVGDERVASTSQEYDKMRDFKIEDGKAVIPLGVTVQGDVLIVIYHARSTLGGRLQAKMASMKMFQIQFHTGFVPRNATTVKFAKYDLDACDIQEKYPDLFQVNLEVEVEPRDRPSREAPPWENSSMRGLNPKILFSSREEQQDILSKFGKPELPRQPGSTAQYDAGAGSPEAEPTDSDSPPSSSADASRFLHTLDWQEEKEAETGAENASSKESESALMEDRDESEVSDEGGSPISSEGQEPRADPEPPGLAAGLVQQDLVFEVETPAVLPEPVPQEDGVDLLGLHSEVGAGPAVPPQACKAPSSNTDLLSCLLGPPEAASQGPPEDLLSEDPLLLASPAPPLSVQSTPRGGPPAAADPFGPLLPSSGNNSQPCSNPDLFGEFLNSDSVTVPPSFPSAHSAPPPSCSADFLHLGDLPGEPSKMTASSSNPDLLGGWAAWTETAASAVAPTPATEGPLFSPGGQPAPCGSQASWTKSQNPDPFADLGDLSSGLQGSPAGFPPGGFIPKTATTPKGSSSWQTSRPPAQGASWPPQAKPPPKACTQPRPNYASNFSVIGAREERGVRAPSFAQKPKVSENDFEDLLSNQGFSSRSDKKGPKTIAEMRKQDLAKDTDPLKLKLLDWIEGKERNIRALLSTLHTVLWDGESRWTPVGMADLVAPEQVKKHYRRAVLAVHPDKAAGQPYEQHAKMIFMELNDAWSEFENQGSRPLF

[3] = molecular target: Tyrosine-protein kinase Lyn (Homo sapiens, UniProt P07948)
[4] = molecular target: T2, Mitogen-activated protein kinase kinase kinase kinase 2 (Homo sapiens, UniProt Q12851)
T2 sequence (Q12851 whole entry): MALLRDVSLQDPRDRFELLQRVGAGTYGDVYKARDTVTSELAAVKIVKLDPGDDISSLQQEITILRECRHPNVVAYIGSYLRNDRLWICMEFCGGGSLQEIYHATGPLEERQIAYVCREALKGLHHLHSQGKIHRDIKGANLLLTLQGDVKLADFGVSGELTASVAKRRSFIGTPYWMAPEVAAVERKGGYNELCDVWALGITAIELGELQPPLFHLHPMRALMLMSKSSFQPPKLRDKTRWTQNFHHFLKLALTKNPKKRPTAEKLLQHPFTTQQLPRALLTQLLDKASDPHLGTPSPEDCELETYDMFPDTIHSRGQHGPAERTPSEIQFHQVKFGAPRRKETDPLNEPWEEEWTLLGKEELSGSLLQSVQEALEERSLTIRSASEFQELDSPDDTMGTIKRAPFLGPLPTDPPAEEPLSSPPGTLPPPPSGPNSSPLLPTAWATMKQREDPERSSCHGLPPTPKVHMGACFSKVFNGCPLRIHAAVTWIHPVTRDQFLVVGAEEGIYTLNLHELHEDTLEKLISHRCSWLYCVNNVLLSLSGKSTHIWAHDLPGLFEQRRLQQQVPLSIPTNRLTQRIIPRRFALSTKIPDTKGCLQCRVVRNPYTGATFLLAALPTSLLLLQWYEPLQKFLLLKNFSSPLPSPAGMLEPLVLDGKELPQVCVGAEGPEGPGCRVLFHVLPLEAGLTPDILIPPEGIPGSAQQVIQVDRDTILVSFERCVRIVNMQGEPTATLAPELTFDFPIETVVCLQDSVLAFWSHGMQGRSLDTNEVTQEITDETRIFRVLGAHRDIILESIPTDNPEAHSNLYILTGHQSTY

[5] = molecular target: S-adenosylmethionine synthase isoform type-2 (Homo sapiens, UniProt P31153)
[6] = molecular target: Serine/threonine-protein kinase N1 (Homo sapiens, UniProt Q16512)
[7] = molecular target: Receptor-interacting serine/threonine-protein kinase 3 (Homo sapiens, UniProt Q9Y572)
[8] = molecular target: Ribosomal protein S6 kinase alpha-1 (Homo sapiens, UniProt Q15418)
[9] = molecular target: Serine/threonine-protein kinase 10 (Homo sapiens, UniProt O94804)
[10] = molecular target: T3, Serine/threonine-protein kinase STK11 (Homo sapiens, UniProt Q15831)
T3 sequence (Q15831 whole entry): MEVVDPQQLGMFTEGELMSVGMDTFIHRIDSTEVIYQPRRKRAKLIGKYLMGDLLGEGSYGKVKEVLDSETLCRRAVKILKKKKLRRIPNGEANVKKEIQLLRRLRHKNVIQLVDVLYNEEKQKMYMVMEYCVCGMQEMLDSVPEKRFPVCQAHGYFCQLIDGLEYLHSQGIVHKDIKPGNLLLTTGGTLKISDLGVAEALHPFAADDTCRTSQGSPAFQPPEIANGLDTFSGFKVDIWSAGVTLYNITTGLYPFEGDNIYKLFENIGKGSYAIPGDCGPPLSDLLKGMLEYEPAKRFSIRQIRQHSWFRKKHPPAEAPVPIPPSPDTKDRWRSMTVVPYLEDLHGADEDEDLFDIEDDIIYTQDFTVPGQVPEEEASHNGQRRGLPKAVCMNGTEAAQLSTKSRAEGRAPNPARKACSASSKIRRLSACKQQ

[11] = molecular target: TGF-beta receptor type-2 (Homo sapiens, UniProt P37173)
Also: in the data inactive means no Kd found up to 30 µM.

Serine/threonine-protein kinase N1, sequence (Q16512 whole entry): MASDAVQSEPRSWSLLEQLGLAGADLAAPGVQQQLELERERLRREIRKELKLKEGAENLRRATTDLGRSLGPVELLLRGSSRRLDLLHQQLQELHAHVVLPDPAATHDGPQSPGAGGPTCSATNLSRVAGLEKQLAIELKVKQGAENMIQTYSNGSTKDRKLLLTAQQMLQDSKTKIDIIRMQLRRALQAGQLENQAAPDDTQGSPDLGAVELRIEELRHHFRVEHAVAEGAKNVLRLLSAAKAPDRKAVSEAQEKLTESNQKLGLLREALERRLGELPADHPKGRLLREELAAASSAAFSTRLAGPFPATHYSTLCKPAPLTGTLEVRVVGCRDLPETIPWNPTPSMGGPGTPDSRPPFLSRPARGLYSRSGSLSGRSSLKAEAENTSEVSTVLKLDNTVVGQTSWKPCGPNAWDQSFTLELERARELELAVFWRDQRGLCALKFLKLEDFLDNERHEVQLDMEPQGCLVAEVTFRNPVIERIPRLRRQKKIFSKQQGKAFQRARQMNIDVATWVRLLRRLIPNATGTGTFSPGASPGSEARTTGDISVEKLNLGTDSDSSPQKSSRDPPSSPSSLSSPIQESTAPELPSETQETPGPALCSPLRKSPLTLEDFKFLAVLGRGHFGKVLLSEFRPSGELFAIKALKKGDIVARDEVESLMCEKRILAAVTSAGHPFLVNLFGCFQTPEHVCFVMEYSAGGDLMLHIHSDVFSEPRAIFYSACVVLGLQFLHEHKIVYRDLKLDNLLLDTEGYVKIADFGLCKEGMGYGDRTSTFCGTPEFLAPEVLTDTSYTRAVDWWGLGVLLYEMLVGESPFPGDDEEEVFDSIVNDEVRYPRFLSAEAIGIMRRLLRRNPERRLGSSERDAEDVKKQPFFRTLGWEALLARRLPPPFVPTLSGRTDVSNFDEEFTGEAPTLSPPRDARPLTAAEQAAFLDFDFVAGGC
Ribosomal protein S6 kinase alpha-1, sequence (Q15418 whole entry): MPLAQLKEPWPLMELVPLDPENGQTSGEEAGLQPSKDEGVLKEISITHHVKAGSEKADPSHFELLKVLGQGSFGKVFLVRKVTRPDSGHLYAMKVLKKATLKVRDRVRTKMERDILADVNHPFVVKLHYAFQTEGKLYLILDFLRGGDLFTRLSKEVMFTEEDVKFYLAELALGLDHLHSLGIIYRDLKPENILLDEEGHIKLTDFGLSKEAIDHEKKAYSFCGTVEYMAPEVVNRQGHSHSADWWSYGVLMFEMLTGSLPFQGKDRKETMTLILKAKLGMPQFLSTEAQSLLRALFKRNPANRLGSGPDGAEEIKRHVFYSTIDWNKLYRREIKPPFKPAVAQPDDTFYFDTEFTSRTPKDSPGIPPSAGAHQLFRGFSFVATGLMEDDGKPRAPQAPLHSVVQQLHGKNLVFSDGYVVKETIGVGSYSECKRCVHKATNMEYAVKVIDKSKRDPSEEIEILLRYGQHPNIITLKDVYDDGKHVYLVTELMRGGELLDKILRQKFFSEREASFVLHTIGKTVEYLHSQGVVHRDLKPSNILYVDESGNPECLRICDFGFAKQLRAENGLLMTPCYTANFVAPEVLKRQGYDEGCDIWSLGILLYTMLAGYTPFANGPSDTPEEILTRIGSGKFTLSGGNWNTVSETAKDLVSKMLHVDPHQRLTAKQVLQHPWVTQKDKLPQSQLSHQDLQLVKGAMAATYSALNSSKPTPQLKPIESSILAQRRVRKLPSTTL
S-adenosylmethionine synthase isoform type-2, sequence (P31153 whole entry, canonical isoform): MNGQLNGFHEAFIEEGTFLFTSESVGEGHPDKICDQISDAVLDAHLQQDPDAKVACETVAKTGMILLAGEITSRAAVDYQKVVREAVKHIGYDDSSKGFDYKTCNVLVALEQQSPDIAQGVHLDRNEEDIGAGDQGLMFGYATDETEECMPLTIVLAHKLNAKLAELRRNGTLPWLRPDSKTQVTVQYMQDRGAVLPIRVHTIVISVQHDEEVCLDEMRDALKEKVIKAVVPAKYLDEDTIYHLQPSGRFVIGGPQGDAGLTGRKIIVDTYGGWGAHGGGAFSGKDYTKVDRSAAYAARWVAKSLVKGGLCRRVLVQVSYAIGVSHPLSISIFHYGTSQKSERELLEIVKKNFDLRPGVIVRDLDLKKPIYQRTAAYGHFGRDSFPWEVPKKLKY
Tyrosine-protein kinase Fyn, sequence (P06241 whole entry): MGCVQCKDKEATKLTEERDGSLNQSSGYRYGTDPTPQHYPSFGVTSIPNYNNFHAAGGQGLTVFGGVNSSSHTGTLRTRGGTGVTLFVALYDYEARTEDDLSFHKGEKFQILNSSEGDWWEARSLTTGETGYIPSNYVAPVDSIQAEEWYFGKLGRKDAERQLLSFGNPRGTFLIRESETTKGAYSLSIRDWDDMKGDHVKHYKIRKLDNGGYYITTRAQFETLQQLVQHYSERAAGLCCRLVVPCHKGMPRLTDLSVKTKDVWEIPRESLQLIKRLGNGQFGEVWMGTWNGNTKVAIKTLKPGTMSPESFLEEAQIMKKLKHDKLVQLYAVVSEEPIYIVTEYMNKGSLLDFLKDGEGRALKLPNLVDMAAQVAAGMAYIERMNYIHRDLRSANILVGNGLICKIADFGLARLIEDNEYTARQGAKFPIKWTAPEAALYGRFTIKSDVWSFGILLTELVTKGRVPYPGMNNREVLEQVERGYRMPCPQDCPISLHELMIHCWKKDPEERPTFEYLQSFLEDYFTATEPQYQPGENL
Tyrosine-protein kinase Lyn, sequence (P07948 whole entry): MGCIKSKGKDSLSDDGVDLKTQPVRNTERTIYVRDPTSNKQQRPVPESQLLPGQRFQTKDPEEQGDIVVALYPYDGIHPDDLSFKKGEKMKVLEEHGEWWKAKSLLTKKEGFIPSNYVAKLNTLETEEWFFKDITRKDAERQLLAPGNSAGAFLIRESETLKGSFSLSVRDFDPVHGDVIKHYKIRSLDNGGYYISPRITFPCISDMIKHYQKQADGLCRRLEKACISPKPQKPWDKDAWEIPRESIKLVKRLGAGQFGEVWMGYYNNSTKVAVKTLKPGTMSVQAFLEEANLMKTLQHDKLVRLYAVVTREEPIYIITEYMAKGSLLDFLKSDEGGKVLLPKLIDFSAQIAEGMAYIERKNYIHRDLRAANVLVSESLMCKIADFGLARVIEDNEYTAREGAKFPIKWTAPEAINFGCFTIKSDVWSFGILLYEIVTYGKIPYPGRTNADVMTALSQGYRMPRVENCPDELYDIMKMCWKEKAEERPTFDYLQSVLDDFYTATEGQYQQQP
Receptor-interacting serine/threonine-protein kinase 3, sequence (Q9Y572 whole entry): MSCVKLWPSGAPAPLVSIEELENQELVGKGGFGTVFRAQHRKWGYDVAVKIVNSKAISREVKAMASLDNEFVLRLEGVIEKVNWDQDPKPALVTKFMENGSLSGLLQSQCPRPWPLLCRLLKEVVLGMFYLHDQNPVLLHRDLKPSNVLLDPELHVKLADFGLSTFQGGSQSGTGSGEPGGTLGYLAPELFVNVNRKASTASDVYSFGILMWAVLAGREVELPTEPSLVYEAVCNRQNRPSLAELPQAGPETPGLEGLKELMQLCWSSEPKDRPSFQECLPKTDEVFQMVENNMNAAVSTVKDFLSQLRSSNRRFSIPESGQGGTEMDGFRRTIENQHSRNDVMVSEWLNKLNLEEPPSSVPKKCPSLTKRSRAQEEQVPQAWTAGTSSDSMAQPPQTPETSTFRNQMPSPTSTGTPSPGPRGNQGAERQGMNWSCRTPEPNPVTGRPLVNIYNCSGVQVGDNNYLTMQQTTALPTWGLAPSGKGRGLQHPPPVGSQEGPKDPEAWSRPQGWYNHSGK
TGF-beta receptor type-2, sequence (P37173 whole entry): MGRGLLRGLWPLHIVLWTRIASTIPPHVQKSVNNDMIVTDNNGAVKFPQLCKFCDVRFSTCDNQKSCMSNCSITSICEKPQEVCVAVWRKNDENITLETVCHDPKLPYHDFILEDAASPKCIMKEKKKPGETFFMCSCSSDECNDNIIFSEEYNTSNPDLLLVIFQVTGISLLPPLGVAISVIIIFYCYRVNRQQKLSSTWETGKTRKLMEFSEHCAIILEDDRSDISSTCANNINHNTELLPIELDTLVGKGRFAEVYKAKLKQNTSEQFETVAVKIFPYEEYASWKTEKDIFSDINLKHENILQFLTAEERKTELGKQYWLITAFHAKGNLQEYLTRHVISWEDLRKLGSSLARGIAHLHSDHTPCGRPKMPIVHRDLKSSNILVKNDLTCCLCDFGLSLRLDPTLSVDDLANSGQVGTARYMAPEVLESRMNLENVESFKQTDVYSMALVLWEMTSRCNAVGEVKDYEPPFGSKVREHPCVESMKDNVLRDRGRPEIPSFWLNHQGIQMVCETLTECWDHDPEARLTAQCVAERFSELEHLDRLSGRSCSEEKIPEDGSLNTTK

Compound	Kd [1]	Kd [2]	Kd [3]	Kd [4]	Kd [5]	Kd [6]	Kd [7]	Kd [8]	Kd [9]	Kd [10]	Kd [11]
Cc1cc2c(F)c(Oc3ncnn4cc(OC[C@@H](C)OC(=O)[C@H](C)N)c(C)c34)ccc2[nH]1 [BRIVANIB ALANINATE]	> 30 µM (inactive)	> 30 µM (inactive)	> 30 µM (inactive)	> 30 µM (inactive)	> 30 µM (inactive)	> 30 µM (inactive)	> 30 µM (inactive)	> 30 µM (inactive)	8.44 µM (active)	> 30 µM (inactive)	> 30 µM (inactive)
CNC(=O)c1ccc(-c2cnc3ncc(Cc4ccc5ncccc5c4)n3n2)cc1F [CAPMATINIB]	> 30 µM (inactive)	> 30 µM (inactive)	> 30 µM (inactive)	> 30 µM (inactive)	> 30 µM (inactive)	> 30 µM (inactive)	> 30 µM (inactive)	> 30 µM (inactive)	> 30 µM (inactive)	> 30 µM (inactive)	> 30 µM (inactive)
O=C(c1ccc(F)c(F)c1Nc1ccc(I)cc1F)N1CC(O)([C@@H]2CCCCN2)C1 [COBIMETINIB]	> 30 µM (inactive)	> 30 µM (inactive)	> 30 µM (inactive)	> 30 µM (inactive)	> 30 µM (inactive)	> 30 µM (inactive)	> 30 µM (inactive)	> 30 µM (inactive)	> 30 µM (inactive)	> 30 µM (inactive)	> 30 µM (inactive)
COC(=O)N[C@@H](C)CNc1nccc(-c2cn(C(C)C)nc2-c2cc(Cl)cc(NS(C)(=O)=O)c2F)n1 [ENCORAFENIB]	> 30 µM (inactive)	> 30 µM (inactive)	> 30 µM (inactive)	> 30 µM (inactive)	> 30 µM (inactive)	> 30 µM (inactive)	0.967 µM (active)	> 30 µM (inactive)	> 30 µM (inactive)	> 30 µM (inactive)	> 30 µM (inactive)
CO[C@H]1C[C@@H]2CC[C@@H](C)[C@@](O)(O2)C(=O)C(=O)N2CCCC[C@H]2C(=O)O[C@H]([C@H](C)C[C@@H]2CC[C@@H](OCCO)[C@H](OC)C2)CC(=O)[C@H](C)/C=C(\C)[C@@H](O)[C@@H](OC)C(=O)[C@H](C)C[C@H](C)/C=C/C=C/C=C/1C [EVEROLIMUS]	> 30 µM (inactive)	> 30 µM (inactive)	> 30 µM (inactive)	> 30 µM (inactive)	> 30 µM (inactive)	> 30 µM (inactive)	> 30 µM (inactive)	> 30 µM (inactive)	> 30 µM (inactive)	> 30 µM (inactive)	> 30 µM (inactive)
CC[C@H](Nc1ncnc2[nH]cnc12)c1nc2cccc(F)c2c(=O)n1-c1ccccc1 [IDELALISIB]	> 30 µM (inactive)	> 30 µM (inactive)	> 30 µM (inactive)	> 30 µM (inactive)	> 30 µM (inactive)	> 30 µM (inactive)	> 30 µM (inactive)	> 30 µM (inactive)	> 30 µM (inactive)	> 30 µM (inactive)	> 30 µM (inactive)
COC(=O)[C@@]1(O)C[C@H]2O[C@]1(C)n1c3ccccc3c3c4c(c5c6ccccc6n2c5c31)C(=O)NC4 [K-252A]	> 30 µM (inactive)	1.27 µM (active)	> 30 µM (inactive)	0.131 µM (active)	> 30 µM (inactive)	0.264 µM (active)	> 30 µM (inactive)	2.99 µM (active)	0.481 µM (active)	> 30 µM (inactive)	> 30 µM (inactive)
O=C(O)[C@]1(Cc2cccc(Nc3nccs3)n2)CC[C@@H](Oc2cccc(Cl)c2F)CC1 [MK-5108]	> 30 µM (inactive)	> 30 µM (inactive)	> 30 µM (inactive)	1.85 µM (active)	> 30 µM (inactive)	> 30 µM (inactive)	> 30 µM (inactive)	> 30 µM (inactive)	1.09 µM (active)	> 30 µM (inactive)	> 30 µM (inactive)
Cc1ccc(-n2nc(C(C)(C)C)cc2NC(=O)NCc2cc(F)ccc2Oc2ccc3c(cnn3CCO)c2)cc1 [PEXMETINIB]	2.14 µM	> 30 µM (inactive)	2.5 µM (active)	> 30 µM (inactive)	> 30 µM (inactive)	> 30 µM (inactive)	0.662 µM (active)	> 30 µM (inactive)	> 30 µM (inactive)	> 30 µM (inactive)	> 30 µM (inactive)

The remaining lines, values ahead:

Kd [1]	Kd [2]	Kd [3]	Kd [4]	Kd [5]	Kd [6]	Kd [7]	Kd [8]	Kd [9]	Kd [10]	Kd [11]	Compound
> 30 µM (inactive)	> 30 µM (inactive)	> 30 µM (inactive)	> 30 µM (inactive)	> 30 µM (inactive)	> 30 µM (inactive)	> 30 µM (inactive)	> 30 µM (inactive)	> 30 µM (inactive)	> 30 µM (inactive)	> 30 µM (inactive)	COc1ccc(-c2ccc3c(N4CCOC[C@@H]4C)nc(N4CCOC[C@@H]4C)nc3n2)cc1CO [AZD-8055]
> 30 µM (inactive)	> 30 µM (inactive)	> 30 µM (inactive)	> 30 µM (inactive)	> 30 µM (inactive)	> 30 µM (inactive)	> 30 µM (inactive)	> 30 µM (inactive)	> 30 µM (inactive)	> 30 µM (inactive)	> 30 µM (inactive)	C[C@@H](Nc1cc(F)cc(F)c1)c1cc(C(=O)N(C)C)cc2c(=O)cc(N3CCOCC3)oc12 [AZD-8186]
> 30 µM (inactive)	7.44 µM (active)	> 30 µM (inactive)	> 30 µM (inactive)	> 30 µM (inactive)	> 30 µM (inactive)	> 30 µM (inactive)	> 30 µM (inactive)	0.317 µM (active)	> 30 µM (inactive)	> 30 µM (inactive)	O=C1NC(=O)/C(=C/c2ccc3nccc(-c4ccncc4)c3c2)S1 [GSK-1059615]
